US20160355475A1, “NOVEL INDOLE DERIVATIVE COMPOUND AND PHARMACEUTICAL COMPOSITION COMPRISING THE SAME” (CHONG KUN DANG PHARMACEUTICAL CORP., priority 2014, published 2016)

Key:
[1] = tested on: histone acetylation (HDAC1); experiment: Western blot of histone H3 and H4 acetylation in RPMI8226 cells; assay type: cell-based; details: 24 hours, FIG. 1
Protocol: (§1) Specifically, RPMI8226 cells were seeded into a six-well plate at a density of 1.0×10^6 cells/well, and then treated with varying concentrations of compound 528. After 24 hours, protein was extracted from the cells using RIPA buffer and quantified by the Bradford method. 25 μg of the protein was added to sample buffer and electrophoresed on 4-12% gradient gel, and the gel was transferred to a nitrocellulose membrane for 50 minutes. The membrane was blocked in 5% skim milk solution for 1 hour. Anti-acetyl H3 antibody (1:2,000), anti-acetyl H4 antibody (1:5,000), anti-acetyl tubulin antibody (1:5,000) and anti-β-actin antibody (1:10,000) were added to 5% skim milk, and the membrane was immersed in the skim milk and allowed to react at 4° C. for 16 hours, after which it was washed three times with 1×TBS-T for 10 minutes each washing. IgG-HRP antibody (1:5,000) was added to the 5% skim milk, and the membrane was immersed in the skim milk and allowed to react at room temperature for 40 minutes, after which it was washed three times with 1×TBS-T for 10 minutes each washing. Detection was performed by LAS 3000 using ECL solution.

[2] = Distribution in brain tissue and plasma of ICR mice after oral administration; assay type: in vivo; details: mouse, 50 mg/kg PO, 0.5, 1 and 2 hours, LC-MS/MS, FIG. 2, read-out: concentration in the plasma tissue relative to that in the brain tissue
Protocol: The distribution of the compound of the present invention in the brain tissue of ICR mice was examined. Specifically, the compound of the present invention was administered orally (PO) to ICR mice at a dose of 50 mg/kg. At 0.5, 1 and 2 hours after administration, blood was collected from the orbital venous plexus of the mice. After the mice were euthanized, the brain tissue (including cerebral, cerebellar and medullar tissues) was extracted.
The blood was centrifuged at 13000 rpm for 4 minutes, and then 30 μL of plasma was collected, and an organic solvent (90 wt % acetonitrile in methanol) was added thereto to remove protein. Then, the solution was centrifuged, and the supernatant was collected.
In addition, saline was added to the isolated brain tissue, and homogenized using a homogenizer. From the homogenized dilution, 100 μL of a sample was taken, and an organic solvent (90 wt % acetonitrile in methanol) was added thereto to remove protein, after which the solution was centrifuged, and the supernatant was collected. The concentrations of the compound of the present invention in the pretreated plasma and brain tissue solutions were analyzed by LC-MS/MS.

HDAC6 human recombinant = molecular target: T1, HDAC6 human recombinant (Homo sapiens, UniProt Q9UBN7); experiment: HDAC6 enzyme activity inhibition (fluorimetric, in vitro); assay type: biochemical; details: 37° C., 60 minutes; tested at 0.1, 1, 10, 100 and 1000 nM
T1 construct: purchased Calbiochem 382180
T1 sequence (Q9UBN7 1-1215): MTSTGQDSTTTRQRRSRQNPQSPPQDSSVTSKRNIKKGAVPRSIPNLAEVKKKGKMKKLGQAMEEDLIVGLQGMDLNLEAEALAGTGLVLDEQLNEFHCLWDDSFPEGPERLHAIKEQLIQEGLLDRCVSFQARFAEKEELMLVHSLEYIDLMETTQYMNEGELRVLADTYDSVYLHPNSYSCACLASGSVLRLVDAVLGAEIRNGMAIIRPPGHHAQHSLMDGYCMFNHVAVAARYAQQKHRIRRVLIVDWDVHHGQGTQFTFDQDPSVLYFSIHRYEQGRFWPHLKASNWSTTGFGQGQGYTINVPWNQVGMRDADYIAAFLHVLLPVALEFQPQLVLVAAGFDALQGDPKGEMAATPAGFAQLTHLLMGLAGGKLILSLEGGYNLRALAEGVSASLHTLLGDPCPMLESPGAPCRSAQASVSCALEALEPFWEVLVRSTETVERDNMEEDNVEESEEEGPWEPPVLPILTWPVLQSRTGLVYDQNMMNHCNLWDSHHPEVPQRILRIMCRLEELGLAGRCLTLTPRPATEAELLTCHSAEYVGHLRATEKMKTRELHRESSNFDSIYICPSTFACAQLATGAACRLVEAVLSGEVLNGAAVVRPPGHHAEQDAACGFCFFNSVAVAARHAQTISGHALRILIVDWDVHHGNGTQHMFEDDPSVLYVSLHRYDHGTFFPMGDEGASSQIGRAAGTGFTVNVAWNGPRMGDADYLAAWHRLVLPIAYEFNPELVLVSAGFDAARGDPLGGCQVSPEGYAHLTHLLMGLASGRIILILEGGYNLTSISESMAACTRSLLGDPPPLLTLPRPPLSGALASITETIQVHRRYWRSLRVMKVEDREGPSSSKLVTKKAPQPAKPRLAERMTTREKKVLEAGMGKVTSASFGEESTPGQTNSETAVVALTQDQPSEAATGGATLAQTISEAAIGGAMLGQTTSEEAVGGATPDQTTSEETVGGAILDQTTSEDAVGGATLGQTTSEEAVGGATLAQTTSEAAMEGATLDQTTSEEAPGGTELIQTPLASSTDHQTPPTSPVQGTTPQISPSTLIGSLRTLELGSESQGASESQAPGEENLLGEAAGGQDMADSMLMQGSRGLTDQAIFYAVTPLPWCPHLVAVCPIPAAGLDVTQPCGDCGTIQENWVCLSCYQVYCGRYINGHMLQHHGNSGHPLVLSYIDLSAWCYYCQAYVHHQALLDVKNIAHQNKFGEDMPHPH
How it was run: (§2)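 Fluorimetric deacetylase assay using an HDAC1 kit and human recombinant HDAC6. Compounds tested at 100–10000 nM (HDAC1) or 0.1–1000 nM (HDAC6), reacted 60 min at 37 °C, then developer 30 min at 37 °C before fluorescence read. Values in μM.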

[3] = tested on: tubulin acetylation (HDAC6); experiment: Western blot of tubulin acetylation in RPMI8226 cells; assay type: cell-based; details: 24 hours, FIG. 1
Protocol: as §1

HDAC1 = molecular target: T2, HDAC1 (Homo sapiens, UniProt Q13547); experiment: HDAC1 enzyme activity inhibition (HDAC1 fluorimetric drug discovery assay kit); assay type: biochemical; details: 37° C., 60 minutes; tested at 100, 1000 and 10000 nM
T2 construct: purchased Enzolifesciences BML-AK511
How it was run: as §2

T2 sequence (Q13547 whole entry): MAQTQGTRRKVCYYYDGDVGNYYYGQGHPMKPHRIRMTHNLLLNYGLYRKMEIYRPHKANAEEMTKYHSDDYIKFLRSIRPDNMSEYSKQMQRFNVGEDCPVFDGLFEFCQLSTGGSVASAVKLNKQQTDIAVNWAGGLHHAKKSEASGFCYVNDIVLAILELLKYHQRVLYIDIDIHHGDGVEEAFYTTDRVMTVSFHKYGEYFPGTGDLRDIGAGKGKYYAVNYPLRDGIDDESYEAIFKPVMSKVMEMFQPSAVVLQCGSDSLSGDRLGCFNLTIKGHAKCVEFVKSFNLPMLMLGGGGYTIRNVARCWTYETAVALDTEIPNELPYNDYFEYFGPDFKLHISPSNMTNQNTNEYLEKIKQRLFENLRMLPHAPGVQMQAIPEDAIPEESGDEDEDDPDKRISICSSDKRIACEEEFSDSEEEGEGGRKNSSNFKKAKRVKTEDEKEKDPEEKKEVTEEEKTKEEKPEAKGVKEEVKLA

Kp [2]	IC50 (HDAC6 human recombinant)	IC50 (HDAC1)	SMILES	compound concentration at which histone acetylation (HDAC1) appeared [1]	compound concentration at which tubulin acetylation (HDAC6) appeared [3]
≥ 0.5	74 nM	8000 nM	Cc1c(Cc2ccc(C(=O)NO)cc2)c2ccccc2n1CC1CCN(CC(C)(C)F)CC1 [Compound 528, 4-((1-((1-(2-fluoro-2-methylpropyl)piperidin-4-yl)methyl)-2-methyl-1H-indol-3-yl)methyl)-N-hydroxybenzamide]	at least 3 uM	100 nM
	140 nM	3880 nM	CC(C)(F)CN1CCC(Cn2cc(Cc3ccc(C(=O)NO)cc3)c3cccnc32)CC1 [Compound 748, 4-((1-((1-(2-Fluoro-2-methylpropyl)piperidin-4-yl)methyl)-1H-pyrrolo[2,3-b]pyridin-3-yl)methyl)-N-hydroxybenzamide]		
	92 nM	8590 nM	Cc1c(Cc2ccc(C(=O)NO)cc2)c2ccccc2n1CC1CN(CC2(F)COC2)C1 [Compound 749, 4-((1-((1-((3-Fluorooxetan-3-yl)methyl)azetidin-3-yl)methyl)-2-methyl-1H-indol-3-yl)methyl)-N-hydroxybenzamide]		
